In patent US10087172B2, “Compounds and their methods of use” (AGIOS PHARMACEUTICALS, INC, priority 2012, dated 2018):

Each molecule was assayed against T1, glutaminase (GAC) (Homo sapiens, UniProt O94925) (assay: Glutaminase (GAC) coupled endpoint enzymatic assay (glutamate dehydrogenase/diaphorase/resazurin, Ex544/Em590)). Details: inhibition of glutaminase, tested in an assay of Example A or Example B; class symbols A-E.
T1 sequence (O94925 55-598 isoform O94925-3 limits assumed): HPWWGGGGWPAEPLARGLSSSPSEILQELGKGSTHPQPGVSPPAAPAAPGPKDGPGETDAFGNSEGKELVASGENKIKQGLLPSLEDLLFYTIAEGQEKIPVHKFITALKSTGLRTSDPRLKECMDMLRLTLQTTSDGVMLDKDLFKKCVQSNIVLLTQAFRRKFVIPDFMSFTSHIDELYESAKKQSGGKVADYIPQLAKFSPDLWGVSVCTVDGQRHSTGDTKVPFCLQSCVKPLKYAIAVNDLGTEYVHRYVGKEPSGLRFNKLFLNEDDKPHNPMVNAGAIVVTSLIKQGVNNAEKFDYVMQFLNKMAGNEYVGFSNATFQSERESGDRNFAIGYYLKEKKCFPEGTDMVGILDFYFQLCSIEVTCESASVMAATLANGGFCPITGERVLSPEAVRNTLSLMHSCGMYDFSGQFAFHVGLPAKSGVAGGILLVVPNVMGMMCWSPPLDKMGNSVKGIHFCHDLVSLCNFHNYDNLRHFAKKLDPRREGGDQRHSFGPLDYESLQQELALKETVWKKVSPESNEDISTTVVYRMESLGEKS
Format: biochemical
Method in brief: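 Glutamate formed by GAC is coupled through GDH and diaphorase to resorufin fluorescence (Ex544/Em590), read after an SDS stop. Buffer pH 8.5 holds phosphate; glutamine is at Km, with 1.56 mM NAD in the enzyme mix. Compound and enzyme mix are preincubated 60 min at room temperature before substrate addition.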

| Compound | IC50 [nM] |
| --- | --- |
| O=C(Nc1nnc([C@H]2CC[C@H](c3nnc(NC(=O)[C@@H](O)c4ccccc4)s3)C2)s1)[C@@H](O)c1ccccc1 [Compound 379] | < 100 |
| O=C(Nc1nnc([C@H]2CCC[C@H](c3nnc(NC(=O)C(CO)c4ccccc4)s3)C2)s1)C(CO)c1ccccc1 (stereo partly drawn) [Compound 380, N,N′-(5,5′-((1S,3S)-cyclohexane-1,3-diyl)bis(1,3,4-thiadiazole-5,2-diyl))bis(3-hydroxy-2-phenylpropanamide)] | < 100 |
| O=C(Cc1cccc(OC(F)(F)F)c1)Nc1nnc([C@H]2CCC[C@H](c3nnc(NC(=O)C(CO)c4ccccc4)s3)C2)s1 (some centres unmarked) [Compound 381] | < 100 |
| O=C(Nc1nnc([C@H]2CC[C@H](c3nnc(NC(=O)[C@H](O)c4ccccc4)s3)C2)s1)[C@H](O)c1ccccc1 [Compound 382] | < 100 |
| CC(=O)N(C)c1cccc(CC(=O)Nc2nnc([C@H]3CCC[C@H](c4nnc(NC(=O)Cc5cccc(N(C)C(C)=O)n5)s4)C3)s2)n1 [Compound 385, N,N′-(5,5′-((1S,3S)-cyclohexane-1,3-diyl)bis(1,3,4-thiadiazole-5,2-diyl))bis(2-(6-(N-methylacetamido)pyridin-2-yl)acetamide)] | < 100 |
| O=C(Cc1cccc(N2CC(F)(F)C2)n1)Nc1nnc([C@H]2CCC[C@H](c3nnc(NC(=O)[C@@H](O)c4ccccc4)s3)C2)s1 [Compound 387, (S)—N-(5-((1S,3S)-3-(5-(2-(6-(3,3-difluoroazetidin-1-yl)pyridin-2-yl)acetamido)-1,3,4-thiadiazol-2-yl)cyclohexyl)-1,3,4-thiadiazol-2-yl)-2-hydroxy-2-phenylacetamide] | < 100 |
| O=C(Cc1cccc(OC(F)(F)F)c1)Nc1nnc([C@H]2CCC[C@H](c3nnc(NC(=O)Cc4cccc(N5CC(F)(F)C5)n4)s3)C2)s1 [Compound 388, 2-(6-(3,3-difluoroazetidin-1-yl)pyridin-2-yl)-N-(5-((1S,3S)-3-(5-(2-(3-(trifluoromethoxy)phenyl)acetamido)-1,3,4-thiadiazol-2-yl)cyclohexyl)-1,3,4-thiadiazol-2-yl)acetamide] | < 100 |
| O=C(Cc1cccc(OC(F)(F)F)c1)Nc1nnc([C@H]2CCC[C@H](c3nnc(NC(=O)C(CO)c4ccccc4)s3)C2)s1 (stereo partly drawn) [Compound 389, 3-hydroxy-2-phenyl-N-(5-((1S,3S)-3-(5-(2-(3-(trifluoromethoxy)phenyl)acetamido)-1,3,4-thiadiazol-2-yl)cyclohexyl)-1,3,4-thiadiazol-2-yl)propanamide] | < 100 |

Continued, values first:

| IC50 [nM] | Compound |
| --- | --- |
| < 100 | O=C(Nc1nnc([C@H]2CCC[C@H](c3nnc(NC(=O)[C@H](O)c4ccccc4)s3)C2)s1)[C@H](O)c1ccccc1 [Compound 370, (2R,2′R)—N,N′-(5,5′-((1S,3S)-cyclohexane-1,3-diyl)bis(1,3,4-thiadiazole-5,2-diyl))bis(2-hydroxy-2-phenylacetamide)] |
| < 100 | O=C(Nc1nnc([C@H]2CCC[C@H](c3nnc(NC(=O)[C@@H](O)c4ccccc4)s3)C2)s1)[C@@H](O)c1ccccc1 [Compound 371, (2R,2′S)—N,N′-(5,5′-((1S,3S)-cyclohexane-1,3-diyl)bis(1,3,4-thiadiazole-5,2-diyl))bis(2-hydroxy-2-phenylacetamide)] |
| < 100 | O=C(Cc1cccc(OC(F)(F)F)c1)Nc1nnc([C@H]2CCC[C@H](c3nnc(NC(=O)[C@@H](O)c4ccccc4)s3)C2)s1 [Compound 372, (S)-2-hydroxy-2-phenyl-N-(5-((1S,3S)-3-(5-(2-(3-(trifluoromethoxy)phenyl)acetamido)-1,3,4-thiadiazol-2-yl)cyclohexyl)-1,3,4-thiadiazol-2-yl)acetamide] |
| < 100 | O=C(Cc1cccc(OC(F)(F)F)c1)Nc1nnc([C@H]2CC[C@H](c3nnc(NC(=O)Cc4cccc(N5CC(F)(F)C5)n4)s3)C2)s1 [Compound 373] |
| < 100 | O=C(Cc1cccc(OC(F)(F)F)c1)Nc1nnc([C@H]2CC[C@H](c3nnc(NC(=O)[C@@H](O)c4ccccc4)s3)C2)s1 [Compound 374, (S)-2-hydroxy-2-phenyl-N-(5-((1S,3S)-3-(5-(2-(3-(trifluoromethoxy)phenyl)acetamido)-1,3,4-thiadiazol-2-yl)cyclopentyl)-1,3,4-thiadiazol-2-yl)acetamide] |
| < 100 | N#Cc1cccc(CC(=O)Nc2nnc([C@H]3CCC[C@H](c4nnc(NC(=O)Cc5cccc(OC(F)(F)F)c5)s4)C3)s2)n1 [Compound 375, 2-(6-cyanopyridin-2-yl)-N-(5-((1S,3S)-3-(5-(2-(3-(trifluoromethoxy)phenyl)acetamido)-1,3,4-thiadiazol-2-yl)cyclohexyl)-1,3,4-thiadiazol-2-yl)acetamide] |
| < 100 | O=C(Cc1ccccn1)Nc1nnc([C@H]2CCC[C@H](c3nnc(NC(=O)[C@@H](O)c4ccccc4)s3)C2)s1 [Compound 376, (S)-2-hydroxy-2-phenyl-N-(5-((1S,3S)-3-(5-(2-(pyridin-2-yl)acetamido)-1,3,4-thiadiazol-2-yl)cyclohexyl)-1,3,4-thiadiazol-2-yl)acetamide] |
| < 100 | O=C(Cc1cccc(N2CC(F)(F)C2)n1)Nc1nnc([C@H]2CC[C@H](c3nnc(NC(=O)[C@@H](O)c4ccccc4)s3)C2)s1 [Compound 377, (S)—N-(5-((1S,3S)-3-(5-(2-(6-(3,3-difluoroazetidin-1-yl)pyridin-2-yl)acetamido)-1,3,4-thiadiazol-2-yl)cyclopentyl)-1,3,4-thiadiazol-2-yl)-2-hydroxy-2-phenylacetamide] |
| < 100 | O=C(Cc1cccc(N2CC(F)(F)C2)n1)Nc1nnc([C@H]2CC[C@H](c3nnc(NC(=O)[C@H](O)c4ccccc4)s3)C2)s1 [Compound 378, (R)—N-(5-((1S,3S)-3-(5-(2-(6-(3,3-difluoroazetidin-1-yl)pyridin-2-yl)acetamido)-1,3,4-thiadiazol-2-yl)cyclopentyl)-1,3,4-thiadiazol-2-yl)-2-hydroxy-2-phenylacetamide] |
